Values joined by “and” are separate entries in the source; they are usually repeats but may differ in a detail not shown here. Equal entries are not always repeated. Where two headings read alike, the source gives them in different places.
Key:
[1] = biological target: dihydrodipicolinate reductase (DHPR) (Escherichia coli, UniProt P04036); assay: DHPR kinetic assay, spectrophotometric oxidation of NADPH at 340 nm; assay type: biochemical; details: Examples 36/37, FIG. 16/17
Description: DHPR was diluted in 10 mM HEPES at a pH of 7.4. DHPS (dihydrodipicolinate synthase) was not diluted and was stored in eppindorf tubes.
The L-ASA (L-aspartate semialdehyde) solution was prepared in the following manner. […] stock solution of ASA was prepared. 100 μl of the ASA stock solution was mixed with 150 μl of concentrated NaHCO3 and 375 μl of H2O. For use in the assay, 28.8 mM L-ASA was equal to 625 μl of the solution. The L-ASA stock solution was kept at a temperature of −20° C. After dilution, the pH of the 28.8 mM solution was checked and maintained between 1 and 2.
The solution for background detection was a 945 μl solution containing 0.1 HEPES (pH 7.8), 1 mM pyruvate, 6 μM NADPH, 40 μM L-ASA, and 7 μl of 1 mg/ml DHPS at 25° C. in the volumes provided above. The sample solution was then mixed and incubated for 10 minutes. Next, 500 nM solutions of the inhibitors and enough DMSO to provide a final DMSO concentration of 5% of the total assay volume were added. The solution was mixed and incubated for an additional 6 minutes.
In DHPR samples, 5 μl of the diluted DHPR enzyme were added. The sample was mixed for 20 seconds and then the reaction was run for 10 minutes. […] Reading of the samples was continued until 300 seconds. […] The substrate was kept at a level at least 10 times the Km. The final concentration of L-ASA was about 1 mM.

[2] = biological target: T1, alcohol dehydrogenase (ADH) (Saccharomyces cerevisiae, UniProt P00330); assay: ADH kinetic assay, spectrophotometric reduction of NAD+ at 340 nm; assay type: biochemical, Bakers Yeast; details: Examples 36/37, FIG. 16/17
T1 construct: ADH from Bakers Yeast; from tissue; host or cells: bakers yeast
T1 sequence (P00330 1-348): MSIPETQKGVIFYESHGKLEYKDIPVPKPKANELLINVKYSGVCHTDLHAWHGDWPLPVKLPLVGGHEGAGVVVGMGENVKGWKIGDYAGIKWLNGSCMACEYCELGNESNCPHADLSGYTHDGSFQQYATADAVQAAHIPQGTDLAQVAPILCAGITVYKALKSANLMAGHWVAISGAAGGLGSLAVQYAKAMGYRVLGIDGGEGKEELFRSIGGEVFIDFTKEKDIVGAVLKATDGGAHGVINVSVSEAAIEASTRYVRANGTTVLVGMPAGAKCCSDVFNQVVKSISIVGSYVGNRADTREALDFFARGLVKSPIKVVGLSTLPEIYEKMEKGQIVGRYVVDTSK
Description: Solutions of 100 μl of the inhibitors in DMSO were prepared to provide a final DMSO concentration of 5% of the total assay volume. […] The reaction was then initiated with 10 μl of ADH from Bakers Yeast (3.3 μg/ml; 1:400 dilution of 1.0 mg/ml). […] Reading of the samples was continued until 300 seconds. […] The substrate was kept at a level at least 10 times the Km. The final concentration of pyruvate was about 2.5 mM.
Where only a simple read was desired, as in the case of NAD+concentration determination, 13 μl (10 M stock) of ethanol was used to drive the reaction, and 10 μl of pure enzyme (1 mg/ml) was used. NAD+was soluble at 2 mM, which allowed the concentration determination step to be skipped. In this situation, the procedure was as follows. All of the ingredients except for the enzyme were mixed together. The solution was mixed well and the absorbance at 340 nm read. The enzyme was added and read again at OD 340 after the absorbance stopped changing, generally 10 to 15 minutes after the enzyme was added.

[3] = biological target: dihydrofolate reductase (DHFR) (UniProt P00374); assay: DHFR kinetic assay, spectrophotometric oxidation of NADH at 340 nm; assay type: biochemical
Description: H2 folate was dissolved in DMSO to about 10 mM and then diluted with water to a concentration of 0.1 mM.
Solutions of 100 μl of the inhibitors in DMSO were prepared to provide a final DMSO concentration of 5% of the total assay volume. […] The oxidation reaction was then initiated with 8 μl of DHFR (0.047 mg/ml). […] Reading of the samples was continued until 300 seconds. Cuvette #1 always contained the control reaction (no inhibitor), and cuvette #2 always contained the positive control reaction in which Cibacron Blue at 3 μM was substituted for inhibitor to yield […] inhibition. The substrate was kept at a level at least 10 times the Km.

[4] = biological target: glyceraldehyde-3-phosphate dehydrogenase (GAPDH) (Escherichia coli, UniProt P0A9B2); assay: GAPDH kinetic assay, spectrophotometric reduction of NAD+ at 340 nm; assay type: biochemical, E. coli; details: Examples 36/37, FIG. 16/17
Description: Reading of the samples was continued until 300 seconds. […] Cuvette #1 contained the control reaction (no inhibitor).
GAP for use in this experiment was deprotected from the diethyl acetal in the following manner. Water was boiled in recrystallizing dish. […] The tube was then immersed, while shaking, in the boiling water for 3 minutes.

[5] = biological target: inosine-5′-monophosphate dehydrogenase (IMPDH); assay: IMPDH kinetic assay, spectrophotometric reduction of NAD+ at 340 nm; assay type: biochemical; details: for IC50: Examples 36/37, FIG. 16/17
Description: Solutions of 100 μl of the inhibitors in DMSO were prepared to provide a final DMSO concentration of 5% of the total assay volume. These solutions were incubated for 6 minutes at 37° C. in a 992 μl of a solution containing 0.1 M Tris-HCl, pH 8.0, 0.25 M KCl, 0.3% glycerol, 30 μM NAD+, and 600 μM IMP (inosine monophosphate). The reaction was then initiated with 8 μμl of IMPDH (0.75 μg/ml). […] Reading of the samples was continued until 300 seconds. Cuvette #1 contained the control reaction (no inhibitor), and cuvette #2 contained the positive control reaction in which Cibacron Blue was substituted for inhibitor. The substrate was kept at a level at least 10 times the Km.

[6] = biological target: isopropylmalate dehydrogenase (IPMDH) (Escherichia coli, UniProt P30125); assay: IPMDH kinetic assay, spectrophotometric reduction of NAD at 340 nm; assay type: biochemical, E. coli; details: Examples 36/37, FIG. 16/17
Description: Inhibitor was incubated for 5 minutes at 37° C. in a 990 μl of a solution containing 20 mM potassium phosphate, pH 7.6, 0.3 M potassium chloride, 0.2 mM manganese chloride, 109 μM NAD, and 340 μM DL-threo-3-isopropylmalic acid (IPM). […] Reading of the samples was continued until 300 seconds. The final concentration of DMSO in the cuvette was 5% of the total assay volume. […] The substrate was kept at a level at least 10 times the Km.

[7] = biological target: Human Aldose Reductase (AR) (Homo sapiens, UniProt P15121); assay: AR kinetic assay, spectrophotometric measurement of enzyme activity at 340 nm; assay type: biochemical
Description: (§1) Solutions of 100 μl of the inhibitors in DMSO were prepared to provide a final DMSO concentration of 5% of the total assay volume. […] The reaction was then initiated with 10 μl of Human Aldose Reductase (1:5 dilution of 0.55 mg/ml). […] Reading of the samples was continued until 300 seconds. The final DMSO concentration in the cuvette was 5%. […] The substrate was kept at a level at least 10 times the Km.

[8] = biological target: 1-deoxy-D-xylulose-5-phosphate reductase (DOXPR) (Escherichia coli, UniProt P45568); assay: DOXPR kinetic assay, spectrophotometric oxidation of NADPH at 340 nm; assay type: biochemical; details: Examples 36/37, FIG. 16/17
Description: DOXPR was diluted in 10 mM HEPES at a pH of 7.4.
Solutions of the inhibitors in DMSO were prepared to provide a final DMSO concentration of 5% of the total assay volume. […] The oxidation reaction was then initiated with 10 μl of DOXP reductoisomerase (10 μg/ml). […] Reading of the samples was continued until 300 seconds. […] The substrate was kept at a level at least 10 times the Km.

[9] = biological target: T2, HMG CoA reductase (HMGCoAR) (UniProt P04035); assay: HMGCoAR kinetic assay, spectrophotometric oxidation of NADPH at 340 nm; assay type: biochemical; details: Examples 36/37, FIG. 16/17
T2 sequence (P04035 1-888): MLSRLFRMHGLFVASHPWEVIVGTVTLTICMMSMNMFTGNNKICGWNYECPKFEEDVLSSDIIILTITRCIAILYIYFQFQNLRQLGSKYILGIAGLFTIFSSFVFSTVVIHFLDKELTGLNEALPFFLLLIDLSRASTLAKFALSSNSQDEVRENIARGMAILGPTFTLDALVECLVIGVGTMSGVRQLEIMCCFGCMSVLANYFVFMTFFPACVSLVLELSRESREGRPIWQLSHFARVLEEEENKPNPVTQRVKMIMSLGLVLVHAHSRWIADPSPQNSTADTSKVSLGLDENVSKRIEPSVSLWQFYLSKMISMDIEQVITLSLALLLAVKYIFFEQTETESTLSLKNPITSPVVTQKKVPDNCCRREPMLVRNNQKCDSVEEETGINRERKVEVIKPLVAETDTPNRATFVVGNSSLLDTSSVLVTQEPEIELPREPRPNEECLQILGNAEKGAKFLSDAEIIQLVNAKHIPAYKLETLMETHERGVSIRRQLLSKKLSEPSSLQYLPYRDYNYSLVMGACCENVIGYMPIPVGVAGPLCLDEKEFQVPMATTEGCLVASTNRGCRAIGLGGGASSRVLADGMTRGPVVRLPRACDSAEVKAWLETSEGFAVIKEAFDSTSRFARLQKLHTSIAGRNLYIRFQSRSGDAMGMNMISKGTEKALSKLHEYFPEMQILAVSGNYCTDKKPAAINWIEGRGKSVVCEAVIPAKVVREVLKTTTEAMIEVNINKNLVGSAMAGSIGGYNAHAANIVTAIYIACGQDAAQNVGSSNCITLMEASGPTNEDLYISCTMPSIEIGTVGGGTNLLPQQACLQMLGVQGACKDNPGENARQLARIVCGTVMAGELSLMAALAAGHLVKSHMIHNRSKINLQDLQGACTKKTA
Description: For HMGCoAR analysis, the compounds were screened using a kinetic protocol that spectrophotometrically evaluates oxidation of NADPH.
Stock solutions of each of the reagents were prepared in the following concentrations. Dilutions of the stock solutions were prepared prior to running the assay in the concentrations indicated below. The enzyme was diluted in 1 M NaCl. To prepare the dilution buffer, 10 μl of HMGCoAR (1 mg/ml) was mixed with 133 μl of 3 M NaCl solution and 257 μl of 25 mM KH2PO4 buffer (pH 7.5; containing 50 mM NaCl, μl mM EDTA (ethylenediaminetetraacetic acid), and 5 mM DTT (dithiothreitol).
The HMGCoAR reaction was monitored at 340 nm prior to and after addition of the inhibitor to detect background reaction with the inhibitor. Solutions of 500 nM of the inhibitors in DMSO were prepared to provide a final DMSO concentration of 2% of the total assay volume. […] The reaction was then initiated with 5 μl of HMGCoAR enzyme (1:40 dilution of 0.65 mg/ml). After the enzyme was added, the solution was mixed for 20 seconds, and the reaction was run for 10 minutes. After a 50 second lag, the samples were read in a Cary spectrophotometer at 340 nm. Reading of the samples was continued until 300 seconds. […] The substrate was kept at a level at least 10 times the Km.

[10] = biological target: T3, lactate dehydrogenase (LDH) (Oryctolagus cuniculus, UniProt P13491); assay: LDH kinetic assay, spectrophotometric oxidation of NADH at 340 nm; assay type: biochemical, Rabbit
T3 construct: LDH from Rabbit Muscle; from tissue; host or cells: rabbit muscle
Description: as §1, with “LDH from Rabbit Muscle (0.5 μ/ml; 1:2000” for “Human Aldose Reductase (1:5”, “1.0” for “0.55”, “seconds.” for “seconds. The final DMSO concentration in the cuvette was 5%.”

dihydrodipicolinate reductase (DHPR), sequence (P04036 whole entry): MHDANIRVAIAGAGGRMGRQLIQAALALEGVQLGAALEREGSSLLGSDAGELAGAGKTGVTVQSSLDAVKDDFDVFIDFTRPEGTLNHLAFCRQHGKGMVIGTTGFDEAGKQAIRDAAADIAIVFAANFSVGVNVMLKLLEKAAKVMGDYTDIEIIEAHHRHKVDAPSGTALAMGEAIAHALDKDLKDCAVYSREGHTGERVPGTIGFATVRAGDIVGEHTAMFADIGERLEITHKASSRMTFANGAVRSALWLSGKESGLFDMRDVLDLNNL
glyceraldehyde-3-phosphate dehydrogenase (GAPDH), sequence (P0A9B2 whole entry): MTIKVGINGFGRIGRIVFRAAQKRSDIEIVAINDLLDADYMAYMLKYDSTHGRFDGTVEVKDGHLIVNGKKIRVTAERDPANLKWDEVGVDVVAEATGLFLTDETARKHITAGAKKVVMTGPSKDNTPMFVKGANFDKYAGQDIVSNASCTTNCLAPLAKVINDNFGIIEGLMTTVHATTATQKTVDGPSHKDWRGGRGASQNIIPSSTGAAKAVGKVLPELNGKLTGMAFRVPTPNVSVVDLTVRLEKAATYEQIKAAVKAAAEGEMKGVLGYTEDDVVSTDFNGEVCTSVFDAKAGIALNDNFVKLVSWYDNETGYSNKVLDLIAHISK
1-deoxy-D-xylulose-5-phosphate reductase (DOXPR), sequence (P45568 whole entry): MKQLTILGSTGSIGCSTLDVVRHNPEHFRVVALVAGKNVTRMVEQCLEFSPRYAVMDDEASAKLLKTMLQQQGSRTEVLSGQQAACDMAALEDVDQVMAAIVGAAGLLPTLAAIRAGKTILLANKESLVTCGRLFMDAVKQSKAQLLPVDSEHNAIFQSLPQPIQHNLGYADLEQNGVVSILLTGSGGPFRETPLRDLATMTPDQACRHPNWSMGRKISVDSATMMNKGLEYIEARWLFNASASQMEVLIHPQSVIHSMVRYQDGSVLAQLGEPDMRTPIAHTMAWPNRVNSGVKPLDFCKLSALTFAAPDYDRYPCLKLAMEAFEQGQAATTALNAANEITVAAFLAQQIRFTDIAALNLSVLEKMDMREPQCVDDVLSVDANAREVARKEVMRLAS
dihydrofolate reductase (DHFR), sequence (P00374 whole entry): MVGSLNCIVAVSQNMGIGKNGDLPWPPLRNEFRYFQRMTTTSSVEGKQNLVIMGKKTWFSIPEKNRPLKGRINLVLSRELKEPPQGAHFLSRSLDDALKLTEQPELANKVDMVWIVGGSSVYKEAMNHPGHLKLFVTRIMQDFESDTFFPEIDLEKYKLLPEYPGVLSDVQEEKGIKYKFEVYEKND
isopropylmalate dehydrogenase (IPMDH), sequence (P30125 whole entry): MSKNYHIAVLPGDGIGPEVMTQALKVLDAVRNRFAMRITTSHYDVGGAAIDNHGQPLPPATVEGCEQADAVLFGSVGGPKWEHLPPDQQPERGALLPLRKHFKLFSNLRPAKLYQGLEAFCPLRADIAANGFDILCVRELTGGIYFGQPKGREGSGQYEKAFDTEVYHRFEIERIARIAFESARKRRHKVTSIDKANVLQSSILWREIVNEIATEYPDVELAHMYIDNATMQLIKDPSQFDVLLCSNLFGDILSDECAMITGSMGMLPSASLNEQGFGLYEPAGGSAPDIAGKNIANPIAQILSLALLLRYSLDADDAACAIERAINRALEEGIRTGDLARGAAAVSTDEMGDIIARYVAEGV

With `O=C1NC(=O)C(=Cc2ccc(-c3ccc(C(=O)O)cc3)o2)S1` [Compound 5a, 4-[5-(2,4-dioxo-thiazolidin-5-ylidenemethyl)-furan-2-yl]-benzoic acid] the IC50 ([1]; read-out: IC50 for DHPR) was over 200 µM, the IC50 [2] was 116 µM and 140 µM and the “inhibition of DHFR” value ([3]; Example 37, result in words) was “No inhibiiton”. For the same compound, the IC50 ([3]; Examples 36/37, FIG. 16/17; read-out: IC50 for DHFR) was over 75 µM, the IC50 ([4]; read-out: IC50 for GAPDH) was over 200 µM and the IC50 [5] was 58.8 µM. The IC50 ([5]; listed as Sa) was over 200 µM, the IC50 [6] was over 200 µM and the IC50 ([7]; Examples 36/37, FIG. 16/17) was 2.26 µM and 4.1 µM.

Compound `O=C1NC(=O)C(=Cc2ccc(-c3cccc(C(=O)O)c3)o2)S1` [Compound 5b, 3-[5-(2,4-dioxo-thiazolidin-5-ylidenemethyl)-furan-2-yl]-benzoic acid] has an IC50 ([1]; IC50 for DHPR) of over 400 µM, an IC50 ([8]; IC50 for DOXPR) of over 400 µM and an IC50 ([4]; IC50 for GAPDH) of over 400 µM. The “inhibition of IMPDH” value ([5]; Example 37, result in words) was “No inhibition” and the IC50 [9] was over 400000 nM.

`O=C1NC(=O)C(=Cc2ccc(-c3ccc(O)c(C(=O)O)c3)o2)S1` [Compound 5e, 5-[5-(2,4-dioxo-thiazolidin-5-ylidenemethyl)-furan-2-yl]-2-hydroxy-benzoic acid] gave an IC50 ([1]; read-out: IC50 for DHPR) of over 200 µM, an IC50 ([10]; Examples 36/37, FIG. 16/17) of 46 µM and an IC50 [2] of 21 µM. The “inhibition of DHFR” value ([3]; Example 37, result in words) was “No inhibition”, the IC50 ([8]; read-out: IC50 for DOXPR) was over 100 µM and the IC50 ([4]; read-out: IC50 for GAPDH) was over 200 µM. The IC50 [5] was 2.15 µM, the IC50 [6] was over 50 µM and the “inhibition of AR” value ([7]; Examples 36/37, result in words) was “No inhibition”.

In the case of `O=C1NC(=S)SC1=Cc1ccc(-c2ccc(O)c(C(=O)O)c2)o1` [Compound 7e, 2-hydroxy-5-[5-(4-oxo-2-thioxo-thiazolidin-5-ylidenemethyl)-furan-2-yl]-benzoic acid], the IC50 ([1]; IC50 for DHPR) is reported as 2.1 µM, the IC50 ([10]; Example 37, FIG. 17) is reported as 0.34 µM and the IC50 [2] is reported as 3.4 µM. For the same compound, the IC50 ([3]; read-out: IC50 for DHFR; Examples 36/37, FIG. 16/17) was 4.3 µM, the IC50 ([8]; IC50 for DOXPR) was 1.6 µM and the IC50 [9] was 143 nM.
